We go through 14 compounds from patent US6476046B1, “Diazabicyclo[4.3.0]nonanes, and methods of use thereof” (Sepracor, Inc., priority 2000, dated 2002).

Molecules are shown by their SMILES. Read-outs that look alike come from different tables or passages of the source.

One assay addresses human opiate receptor μ (Homo sapiens, UniProt P35372). Briefly: Radioligand binding assay, human opiate receptor μ. The source says:
Another assay useful in the present invention concerns determining the ability of a ligand to bind to a biological receptor utilizing a technique well known in the art referred to as a radioligand binding assay. This assay accurately determines the specific binding of a radioligand to a targeted receptor through the delineation of its total and nonspecific binding components. Total binding is defined as the amount of radioligand that remains following the rapid separation of the radioligand bound in a receptor preparation (cell homogenates or recombinate receptors) from that which is unbound. The nonspecific binding component is defined as the amount of radioligand that remains following separation of the reaction mixture consisting of receptor, radioligand and an excess of unlabeled ligand. Under this condition, the only radioligand that remains represents that which is bound to components other that receptor. The specific radioligand bound is determined by subtracting the nonspecific from total radioactivity bound. For a specific example of radioligand binding assay for μ-opioid receptor, see Wang, J. B. et al. FEBS Letters 1994, 338, 217.
(§1) Radioligand Binding Assays (IC50, μM)
(§2) The radiobinding assays for human opiate receptor μ, κ and δ are conducted according the procedures outlined by Maguire et al. (Eur. Pharmacol. 1992, 213, 219).

The target in a further assay is human opiate receptor κ (Homo sapiens, UniProt P41145). In words: Radioligand binding assay, human opiate receptor κ. The protocol: as §1, §2
human opiate receptor κ, sequence (P41145 whole entry): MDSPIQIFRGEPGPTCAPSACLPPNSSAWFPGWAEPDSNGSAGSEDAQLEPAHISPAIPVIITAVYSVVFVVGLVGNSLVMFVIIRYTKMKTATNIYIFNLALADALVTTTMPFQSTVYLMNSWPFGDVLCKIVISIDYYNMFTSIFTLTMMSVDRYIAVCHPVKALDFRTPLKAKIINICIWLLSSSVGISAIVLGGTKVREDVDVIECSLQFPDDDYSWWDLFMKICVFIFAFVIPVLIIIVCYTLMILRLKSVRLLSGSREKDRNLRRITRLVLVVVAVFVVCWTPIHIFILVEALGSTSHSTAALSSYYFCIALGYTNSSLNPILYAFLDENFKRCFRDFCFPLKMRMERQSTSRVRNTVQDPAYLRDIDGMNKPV
In the next assay the target is human opiate receptor δ (Homo sapiens, UniProt P41143). Briefly: Radioligand binding assay, human opiate receptor δ. The protocol: as §1, §2
human opiate receptor δ, sequence (P41143 whole entry): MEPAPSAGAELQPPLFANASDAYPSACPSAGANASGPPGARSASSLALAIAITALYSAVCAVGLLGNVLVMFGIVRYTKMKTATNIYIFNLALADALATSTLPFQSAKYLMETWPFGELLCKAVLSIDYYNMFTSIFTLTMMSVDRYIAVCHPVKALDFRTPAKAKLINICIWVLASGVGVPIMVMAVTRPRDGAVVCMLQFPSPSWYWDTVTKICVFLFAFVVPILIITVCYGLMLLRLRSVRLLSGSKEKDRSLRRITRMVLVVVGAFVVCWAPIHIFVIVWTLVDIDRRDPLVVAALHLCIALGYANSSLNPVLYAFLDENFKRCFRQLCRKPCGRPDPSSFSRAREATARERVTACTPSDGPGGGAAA
Assay [1] can be described thus: In vivo analgesia, tail flick model. To be noted: Rattus norvegicus. The protocol: (§3) Various experimental procedures, well known in the art, are useful in the present invention to assess the analgesic effect of compounds, such as the “tail flick” and “hot plate” tests. The “tail flick” test can be performed by applying a noxious thermal stimulus to the rat's tail and determining the time until the nociceptive tail flick occurs.
(§4) In vivo Analgesia Experiments
The tail flick model was conducted according to D'Amour F. E. and Smith D. L. J. Pharmacol. Exp. Ther. 1941, 72, 74.

A short description of assay [2]: In vivo analgesia, hot plate test. To be noted: Rattus norvegicus.
Text: as §3, §4
In general terms: Thermal pain tests record how soon the animal reacts.

Where [3] appears, read: radioligand binding, human opiate receptor μ, read-out: μ (IC50).
Where [4] appears, read: radioligand binding, human opiate receptor κ, read-out: κ (IC50).
[5] abbreviates: radioligand binding, human opiate receptor δ, read-out: δ (IC50).

human opiate receptor μ, sequence (P35372 whole entry): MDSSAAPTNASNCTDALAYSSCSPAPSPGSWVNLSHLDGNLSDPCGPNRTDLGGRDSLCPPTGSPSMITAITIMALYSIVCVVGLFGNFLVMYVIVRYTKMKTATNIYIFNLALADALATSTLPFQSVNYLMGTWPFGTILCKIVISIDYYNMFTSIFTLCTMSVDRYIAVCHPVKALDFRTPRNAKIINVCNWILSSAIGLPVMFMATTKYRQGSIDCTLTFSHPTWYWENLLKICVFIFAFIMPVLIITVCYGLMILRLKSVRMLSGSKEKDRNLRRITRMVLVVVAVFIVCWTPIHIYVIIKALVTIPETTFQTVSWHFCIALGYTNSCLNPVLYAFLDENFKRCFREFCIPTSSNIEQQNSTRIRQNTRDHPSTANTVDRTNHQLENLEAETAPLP

Take `CCC(=O)N(C[C@@]12CN(CCc3ccccc3)CCC1CN(CCc1ccccc1)C2)c1ccccc1` (single isomer, unassigned) [Compound 37]: the figures for the IC50 at human opiate receptor μ (setting [3]), on human opiate receptor κ (setting [4]) and at human opiate receptor δ (setting [5]) were less than 10 nM, less than 1 µM and less than 1000 nM, respectively. For the same compound, the ED50 (commonly the dose that gives a 50% effect, or the effect in half of the subjects) in assay [1] was found to be 0.05 mg/kg; in assay [2], 0.06 mg/kg.
In the case of `CCC(=O)N(C[C@]12CN(CCc3ccccc3)CCC1CN(CCc1ccccc1)C2)c1ccccc1` (single isomer, unassigned) [Compound 38], the figures for the IC50 on human opiate receptor μ (setting [3]), on human opiate receptor κ (setting [4]) and on human opiate receptor δ (setting [5]) were less than 100 nM, less than 5 µM and less than 1000 nM, respectively. Also, the median effective dose (ED50) turned out to be 0.18 mg/kg in assay [1] and 152 mg/kg in assay [2].
Regarding `O[C@@H](c1ccccc1)C12CN(CCc3ccccc3)CCC1CN(Cc1ccccc1)C2` (some centres unmarked) [Compound 11], the values for the IC50 at human opiate receptor μ (setting [3]) and at human opiate receptor κ (setting [4]) were less than 1000 nM and less than 5 µM, respectively.
`O[C@H](c1ccccc1)C12CN(CCc3ccccc3)CCC1CN(Cc1ccccc1)C2` (some centres unmarked) [Compound 12]: the half-inhibitory concentration (IC50) (as a rule, the point on the concentration scale where inhibition reaches its midpoint) on human opiate receptor μ (setting [3]) is less than 1000 nM; on human opiate receptor κ (setting [4]), less than 5 µM.
Consider `COc1cccc(C(O)C23CN(CCc4ccccc4)CCC2CN(Cc2ccccc2)C3)c1` (centres unmarked) [Compound 14], for which, on human opiate receptor μ (setting [3]), the IC50 is less than 1000 nM.
Take `CCC(=O)N(CC12CN(CCc3ccccc3)CCC1CN(Cc1ccccc1)C2)c1ccccc1` (centres unmarked) [Compound 23]: the IC50 was less than 100 nM at human opiate receptor μ (setting [3]), less than 5 µM at human opiate receptor κ (setting [4]) and less than 1000 nM on human opiate receptor δ (setting [5]).
For the compound `CS(=O)(=O)N(CC12CN(CCc3ccccc3)CCC1CN(Cc1ccccc1)C2)c1ccccc1` (centres unmarked) [Compound 25], the IC50 on human opiate receptor μ (setting [3]) is less than 1000 nM; at human opiate receptor κ (setting [4]), less than 10 µM.
In the case of `CCC(=O)N(c1ccccc1)C(C)C12CN(CCc3ccccc3)CCC1CN(Cc1ccccc1)C2` (centres unmarked) [Compound 31], the half-inhibitory concentration (IC50) on human opiate receptor μ was less than 10 nM; on human opiate receptor κ it was less than 5 µM; at human opiate receptor δ, less than 1000 nM.
On the same counts, the results for `C[C@H](N(C(=O)C1CCC1)c1ccccc1)C12CN(CCc3ccccc3)CCC1CN(Cc1ccccc1)C2` (some centres unmarked) [Compound 32] are less than 100 nM, less than 5 µM and less than 1000 nM.
On the same counts, the results for `C[C@@H](N(C(=O)C1CCC1)c1ccccc1)C12CN(CCc3ccccc3)CCC1CN(Cc1ccccc1)C2` (some centres unmarked) [Compound 33] are less than 1000 nM, less than 5 µM and less than 5000 nM.
In the case of `CCC(=O)N(CC12CN(CCc3ccccc3)CCC1CN(CCc1ccccc1)C2)c1ccccc1` (centres unmarked) [Compound 36], the IC50 on human opiate receptor μ was less than 10 nM; on human opiate receptor κ, less than 5 µM; at human opiate receptor δ it was less than 1000 nM.
`CCC(=O)N(CC12CN(CCc3ccccc3)CCC1CN(C(C)=O)C2)c1ccccc1` (centres unmarked) [Compound 40]: the IC50 on human opiate receptor μ (setting [3]) was less than 1000 nM.
The same measure, in the same setting: under `CCC(=O)N(CC12CN(CCc3ccccc3)CCC1CN(S(C)(=O)=O)C2)c1ccccc1` (centres unmarked) [Compound 41] stands less than 1000 nM.
For `CCC(=O)N(CC12CN(C)CC1CCN(CCc1ccccc1)C2)c1ccccc1` (centres unmarked) [Compound 42], the half-maximal inhibitory concentration (IC50) on human opiate receptor μ (setting [3]) was less than 1000 nM.
